The record followed here is patent publication US20120149697A1 (priority 2009, published 2012).

The data set has as its system ScGT1 cells. The conditions noted are these: for cells remained viable: mouse.

Turning to humic acids [HA], the “cell viability (cytotoxicity effect)” value was “remain viable” and the cells remained viable is reported as 96%.

On to fulvic acids [FA], for which the “cell viability (cytotoxicity effect)” value was “remain viable” and the cells remained viable came to 94%.
